Assay results: ChEMBL document CHEMBL1909046, “DrugMatrix in vitro pharmacology data”

How the values were obtained:
[1] = DRUGMATRIX: Interleukin IL-1 radioligand binding (ligand: [125I] interleukin 1beta); assay type: cell membranes, Membrane; conditions: nih3t3; Not Active = under 50% inhibition at 10 µM
[2] = molecular target: T1, Muscarinic acetylcholine receptor M2 (Homo sapiens, UniProt P08172); assay type: cell membranes, CHO-K1, Membrane; conditions: cho-k1; also: in other assays of this panel Not Active means under 50% inhibition at 10 µM
T1 sequence (P08172 whole entry): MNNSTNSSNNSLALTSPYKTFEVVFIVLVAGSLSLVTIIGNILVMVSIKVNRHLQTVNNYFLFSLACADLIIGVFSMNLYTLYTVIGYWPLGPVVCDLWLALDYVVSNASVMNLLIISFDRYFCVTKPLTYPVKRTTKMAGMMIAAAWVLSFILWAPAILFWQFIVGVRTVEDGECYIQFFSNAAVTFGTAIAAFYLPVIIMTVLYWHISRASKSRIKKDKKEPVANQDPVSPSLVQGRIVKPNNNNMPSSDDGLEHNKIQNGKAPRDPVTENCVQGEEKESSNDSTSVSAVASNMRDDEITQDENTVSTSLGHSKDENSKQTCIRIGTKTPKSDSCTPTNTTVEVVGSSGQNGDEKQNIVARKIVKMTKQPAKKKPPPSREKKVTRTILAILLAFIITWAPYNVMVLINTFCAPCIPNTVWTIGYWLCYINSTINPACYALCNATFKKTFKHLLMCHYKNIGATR

[3] = molecular target: Acetylcholinesterase (Homo sapiens, UniProt P22303); experiment: DRUGMATRIX: Acetylcholinesterase enzyme inhibition (substrate: acetylthiocholine); assay type: cell-based, HEK293; conditions: hek293; Not Active = under 50% inhibition at 10 µM
Sequence of Acetylcholinesterase (P22303 whole entry): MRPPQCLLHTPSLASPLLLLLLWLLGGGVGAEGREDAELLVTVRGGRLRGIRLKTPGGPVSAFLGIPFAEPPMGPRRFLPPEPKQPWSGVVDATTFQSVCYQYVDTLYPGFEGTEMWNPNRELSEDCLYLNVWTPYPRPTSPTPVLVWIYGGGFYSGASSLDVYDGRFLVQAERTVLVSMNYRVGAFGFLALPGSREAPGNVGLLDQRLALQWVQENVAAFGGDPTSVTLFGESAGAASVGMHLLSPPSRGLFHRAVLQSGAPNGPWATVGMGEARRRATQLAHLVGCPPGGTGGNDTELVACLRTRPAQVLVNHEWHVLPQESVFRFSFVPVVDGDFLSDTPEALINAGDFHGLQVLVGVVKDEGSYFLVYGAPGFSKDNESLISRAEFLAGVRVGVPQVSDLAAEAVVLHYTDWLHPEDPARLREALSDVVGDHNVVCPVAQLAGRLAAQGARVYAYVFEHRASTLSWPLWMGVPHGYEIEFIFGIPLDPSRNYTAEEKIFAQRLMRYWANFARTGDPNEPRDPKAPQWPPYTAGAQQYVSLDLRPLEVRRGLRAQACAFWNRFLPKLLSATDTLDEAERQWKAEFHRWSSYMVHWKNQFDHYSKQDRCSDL

[4] = molecular target: T2, Interstitial collagenase (Homo sapiens, UniProt P03956); experiment: biochemical; assay type: tissue-based, Rheumatoid synovial fibroblasts;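 also: MMP-1 enzyme inhibition assay using a peptide substrate; in other assays of this panel Not Active means under 50% inhibition at 10 µM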
T2 sequence (P03956 whole entry): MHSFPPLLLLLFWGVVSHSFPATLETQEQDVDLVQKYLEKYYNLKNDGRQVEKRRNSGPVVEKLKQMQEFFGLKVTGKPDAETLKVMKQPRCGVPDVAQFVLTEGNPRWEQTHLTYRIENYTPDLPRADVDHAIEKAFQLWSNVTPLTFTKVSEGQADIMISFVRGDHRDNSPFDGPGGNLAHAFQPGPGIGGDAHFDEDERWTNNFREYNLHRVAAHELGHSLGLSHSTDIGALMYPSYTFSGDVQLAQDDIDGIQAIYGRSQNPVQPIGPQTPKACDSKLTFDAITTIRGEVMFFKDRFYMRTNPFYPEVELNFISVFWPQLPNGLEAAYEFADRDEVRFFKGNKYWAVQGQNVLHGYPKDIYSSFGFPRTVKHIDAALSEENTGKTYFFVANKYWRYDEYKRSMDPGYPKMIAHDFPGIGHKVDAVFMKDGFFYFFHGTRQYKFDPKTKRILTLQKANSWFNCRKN

[5] = molecular target: Carbonic anhydrase 2 (Homo sapiens, UniProt P00918); experiment: DRUGMATRIX: Carbonic Anhydrase II enzyme inhibition (substrate: 4-Nitrophenyl acetate (4-NPA)); assay type: tissue-based, Erythrocyte; conditions: Not Active = under 50% inhibition at 10 µM
[6] = molecular target: T3, Type-2 angiotensin II receptor (Homo sapiens, UniProt P50052); experiment: biochemical; assay type: cell-based, CHO-K1; conditions: cho-k1; also: in other assays of this panel Not Active means under 50% inhibition at 10 µM
T3 sequence (P50052 whole entry): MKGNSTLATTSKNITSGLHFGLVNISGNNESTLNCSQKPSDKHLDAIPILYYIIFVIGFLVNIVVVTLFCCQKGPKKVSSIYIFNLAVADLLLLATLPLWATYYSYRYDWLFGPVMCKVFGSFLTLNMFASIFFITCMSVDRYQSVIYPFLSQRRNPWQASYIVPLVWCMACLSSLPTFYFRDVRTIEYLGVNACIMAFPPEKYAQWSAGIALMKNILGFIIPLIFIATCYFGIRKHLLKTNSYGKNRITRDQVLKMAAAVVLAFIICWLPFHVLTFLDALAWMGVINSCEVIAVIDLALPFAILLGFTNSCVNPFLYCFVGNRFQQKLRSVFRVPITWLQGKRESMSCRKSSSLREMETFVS

[7] = molecular target: T4, Alpha-2C adrenergic receptor (Homo sapiens, UniProt P18825); experiment: DRUGMATRIX: Adrenergic Alpha-2C radioligand binding (ligand: [3H] MK-912); assay type: cell membranes, Sf9, Membrane; conditions: sf9
T4 sequence (P18825 whole entry): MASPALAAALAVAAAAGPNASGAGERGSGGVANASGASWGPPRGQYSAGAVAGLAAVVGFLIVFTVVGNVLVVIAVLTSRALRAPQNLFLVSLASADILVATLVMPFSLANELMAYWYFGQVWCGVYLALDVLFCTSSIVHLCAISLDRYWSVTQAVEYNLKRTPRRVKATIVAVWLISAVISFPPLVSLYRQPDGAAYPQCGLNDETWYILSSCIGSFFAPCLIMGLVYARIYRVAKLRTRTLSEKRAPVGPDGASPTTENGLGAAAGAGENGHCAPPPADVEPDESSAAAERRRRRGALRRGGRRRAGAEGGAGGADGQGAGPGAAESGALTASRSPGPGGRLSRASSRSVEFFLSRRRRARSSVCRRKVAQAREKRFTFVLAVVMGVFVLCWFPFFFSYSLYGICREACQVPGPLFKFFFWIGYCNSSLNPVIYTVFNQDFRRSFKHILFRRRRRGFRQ

C[C@@H]1O[C@@H](O[C@H]2C[C@@H](O)[C@]3(CO)[C@H]4[C@H](O)C[C@]5(C)[C@@H](C6=CC(=O)OC6)CC[C@]5(O)[C@@H]4CC[C@]3(O)C2)[C@H](O)[C@H](O)[C@H]1O [OUABAIN]
Not Active: IC50 [1] | Ki [1] | IC50 [2] | IC50 [3] | IC50 [4] | IC50 ([5]; erythrocyte) | IC50 [6] | IC50 [7]

NC(=O)N1c2ccccc2CC(=O)c2ccccc21 [OXCARBAZEPINE]
Not Active: IC50 [1] | Ki [1] | IC50 [2] | IC50 [3] | IC50 [4] | IC50 ([5]; erythrocyte) | IC50 [6] | IC50 [7]

COc1ccnc(C[S+]([O-])c2nc3ccc(OC(F)F)cc3[nH]2)c1OC (stereo not drawn) [PANTOPRAZOLE]
Not Active: IC50 [1] | Ki [1] | IC50 [2] | IC50 [3] | IC50 [4] | IC50 ([5]; erythrocyte) | IC50 [6] | IC50 [7]

NNCCc1ccccc1 [PHENELZINE]
Not Active: IC50 [1] | Ki [1] | IC50 [2] | IC50 [3] | IC50 [4] | IC50 ([5]; erythrocyte) | IC50 [6] | IC50 [7]

CCc1ccc(CCOc2ccc(CC3SC(=O)NC3=O)cc2)nc1 (stereo not drawn) [PIOGLITAZONE]
Not Active: IC50 [1] | Ki [1] | IC50 [2] | IC50 [3] | IC50 [4] | IC50 [6] | IC50 [7]
114 nM: IC50 ([5]; read-out: IC50)

CCCNC(C)C(=O)Nc1ccccc1C (stereo not drawn) [PRILOCAINE]
Not Active: IC50 [1] | Ki [1] | IC50 [2] | IC50 [3] | IC50 [4] | IC50 ([5]; erythrocyte) | IC50 [6] | IC50 [7]

CCN(CC)CCNC(=O)c1ccc(N)cc1 [PROCAINAMIDE]
Not Active: IC50 [1] | Ki [1] | IC50 [2] | IC50 [3] | IC50 [4] | IC50 ([5]; erythrocyte) | IC50 [6] | IC50 [7]

C[C@]12C=CC(=O)C=C1CC[C@H]1[C@@H]3C[C@@H](O)[C@](O)(C(=O)CO)[C@@]3(C)C[C@H](O)[C@@]12F [TRIAMCINOLONE]
Not Active: IC50 [1] | Ki [1] | IC50 [2] | IC50 [3] | IC50 [4] | IC50 ([5]; erythrocyte) | IC50 [6] | IC50 [7]

CC[C@]1(O)C[C@@H]2CN(CCc3c([nH]c4ccccc34)[C@@](C(=O)OC)(c3cc4c(cc3OC)N(C)[C@H]3[C@@](O)(C(N)=O)[C@H](O)[C@]5(CC)C=CCN6CC[C@]43[C@@H]65)C2)C1 [VINDESINE]
Not Active: IC50 [1] | Ki [1] | IC50 [2] | IC50 [3] | IC50 [4] | IC50 ([5]; erythrocyte) | IC50 [6] | IC50 [7]

CCN(C(C)=O)c1cccc(-c2ccnc3c(C#N)cnn23)c1 [ZALEPLON]
Not Active: IC50 [1] | Ki [1] | IC50 [2] | IC50 [3] | IC50 [4] | IC50 ([5]; erythrocyte) | IC50 [6] | IC50 [7]

COBALTOUS CHLORIDE
Not Active: IC50 [1] | Ki [1] | IC50 [2] | Ki [2] | IC50 [3] | Ki [3] | IC50 [4] | Ki [4] | IC50 ([5]; erythrocyte) | Ki ([5]; erythrocyte) | IC50 [6] | Ki [6] | IC50 [7] | Ki [7]

COLISTIN
Not Active: IC50 [1] | Ki [1] | IC50 [2] | Ki [2] | IC50 [3] | Ki [3] | IC50 [4] | Ki [4] | IC50 ([5]; erythrocyte) | Ki ([5]; erythrocyte) | IC50 [6] | Ki [6] | IC50 [7] | Ki [7]
